Results on 6 compounds are retold here after patent publication US9140688B2, “Sperm staining and sorting methods” (INGURAN, LLC, priority 2011, dated 2015).

Several values for one entry are separate records, joined by “and”; a condition that tells them apart may be missing. Identical values can stand only once. Like-named read-outs stand apart in the source and are kept apart here.

For data set [1], the system named is membrane compromised bovine sperm stained with Hoechst 33342. Briefly: Dead quenching: dead gate intensity divided by live gate intensity, flow cytometry of stained bovine sperm. The note with it: Ex 10; Y6 25 μM. The data set is classed as cell-based. The source says: FIG. 4 illustrates an example bivariate plot and univariate histogram of the parameters measured during sex selection by a FACS on a flow cytometer. […] Without a dead quenching dye, both populations of sperm would overlap to a large extent, with unpredictable variations in the dead sperm.
The entire ejaculate of sperm was suspended in first staining buffer, specifically a 7.4 pH TALP described in TABLE 1, to a concentration of 160×10^6 sperm per mL (determined on nucleocounter) and divided into three aliquots of about 20 mL into 50 mL Falcon tubes and pre-warmed for 10 minutes at 34° C. The DNA selective fluorescent dye, Hoechst 33342, was added and samples were held at 34° C. for 60 minutes. 3 different Hoechst 33342 Stain Levels were used=12 μL, 14 μL and 16 μL per 2 mL (effective concentrations of 48 μM, 56 μM, 64 μM).
Preparation of the second buffer including the dead quenching dye—A 2 L bag of TALP, described in TABLE 1, was adjusted to pH 5.60 using HCl and then sterile filtered. […] For each of the four dyes tested (R40—red food dye No. 40, Y5—yellow food dye No. 5, Y6—yellow food dye No. 6 and PR—phenol red), an appropriate number of milligrams of each powder was placed in a Erlenmeyer Flask and then an exact amount of TALP pH 5.60 was added to create a […] concentration of the dye. The result was a working TALP stock for each dye with a 100% (125 μM) relative amount of dye 50% relative (62.5 μM) and 20% relative (25 μM) solutions were made by dilution of 100% by TALP pH 5.60.
After this “bulk” staining for 60 minutes, 1 mL aliquots of stained sperm were combined with 1 mL aliquots of the second buffer including the dead quenching dyes. Samples sat for approximately 30 minutes at room temperature before being analyzed on a MoFlo SX (Beckman Coulter, USA) sperm sorting flow cytometer. Event rates were held as close to 13,000 as possible at the point of data acquisition.
The total number of individual treatments was 42 tubes, each containing 2 mL of stained sample. The alignment of the sorter was established using nuclei and confirmed with live sample from the 50% Red 40 series. Once good alignment was established, each tube was placed on the sorter long enough to establish a stabile dead gate population (about 30 seconds) and then a screenshot was taken and saved as a .jpeg image. This approach of rapidly documenting each sample is used to assure the most consistent alignment between all samples. Realignment of sorter will not cause differences in the intensities of live and dead gate populations but will cause differences in split quality.
FIG. 4 illustrates an example histogram. The ratio of dead gate intensity divided by live gate intensity is created by dividing the distance “A” by the distance “B” shown as a percentage. Lower values mean higher levels of quenching. The ratio of peak height divided by valley height is created by dividing the distance “C” by the distance “D”. A value of 1.00 means “no split” while higher values mean “better splits”. […]

Data set [2] concerns X- and Y-chromosome bearing bovine sperm stained with Hoechst 33342. The data set can be described thus: Split quality: height of peak divided by height of valley (PV), flow cytometry of stained bovine sperm. The note with it: for split enhancing effect compared to control, in words / peak to valley ratio, average 8 bulls: Ex 10; for split enhancing effect compared to control, in words: 15, 45, 125 μM, averaged over 8 bulls; for peak to valley ratio, average 8 bulls: Hoechst 64 μM; for PV: Ex 9, Bull 3, Hoechst 60 μM. In kind it is cell-based.

The conditions of data set [3]: cited from earlier work; for (local) maximum absorption wavelength, as believed: phenol red in the red molecular form; for Expected Absorption Maxima: solvent water.
Where [4] appears, read: split enhancing dye 15 μM, 30 Min incubation, Y6 25 μM in second buffer.
[5] abbreviates: split enhancing dye 15 μM, 45 Min, Y6 25 μM.
[6] abbreviates: split enhancing dye 15 μM, 60 Min, Y6 25 μM.
Where [7] appears, read: split enhancing dye 15 μM, 75 Min, Y6 25 μM.
[8] abbreviates: split enhancing dye 45 μM, 30 Min, Y6 25 μM.
Setting [9] is: split enhancing dye 45 μM, 45 Min, Y6 25 μM.
The mark [10] stands for this setting: split enhancing dye 45 μM, 60 Min, Y6 25 μM.
[11] abbreviates: split enhancing dye 45 μM, 75 Min, Y6 25 μM.
Setting [12] is: split enhancing dye 125 μM, 30 Min, Y6 25 μM.
The mark [13] stands for this setting: split enhancing dye 125 μM, 45 Min, Y6 25 μM.
Where [14] appears, read: split enhancing dye 125 μM, 60 Min, Y6 25 μM.
Where [15] appears, read: split enhancing dye 125 μM, 75 Min, Y6 25 μM.
Where [16] appears, read: shorter-wavelength local maximum.

As for `Cc1c(C(=O)O)c(O)cc2c1C(=O)c1c(O)c(C3O[C@H](CO)[C@@H](O)[C@H](O)[C@H]3O)c(O)c(O)c1C2=O` (stereo in doubt) [Red 4, carmine], the “dead quenching capacity of split enhancing dye in combination with yellow food dye No. 6 (FIG. 8)” value in data set [1] is recorded as “significant increase in quenching the dead subpopulation”. Also, the “split enhancing effect compared to control, in words” value in data set [2] is “distinct improvements at all concentrations and at all times”. In addition, the “peak to valley ratio, average 8 bulls” value in data set [2] (setting [4]) is reported as 1.09; in data set [2] (setting [5]), 1.44; in data set [2] (setting [6]) it was 1.79; in data set [2] (setting [7]) it was 1.91; in data set [2] (setting [8]), 1.18; in data set [2] (setting [9]) it was 1.50. For the same compound, the “peak to valley ratio, average 8 bulls” value in data set [2] (setting [10]) turned out to be 1.76; in data set [2] (setting [11]) it was 1.94; in data set [2] (setting [12]), 1.13; in data set [2] (setting [13]), 1.45; in data set [2] (setting [14]), 1.81; in data set [2] (setting [15]), 1.95. Moreover, the “(local) maximum absorption wavelength, as believed” value in data set [3] (listed as red food dye No. 4) is 520 nm and 555 nm. The “Expected Absorption Maxima” value in data set [3] (listed as Red 4 (natural), longer-wavelength local maximum) is reported as 555 nm; in data set [3] (listed as Red 4 (natural), shorter-wavelength local maximum), 520 nm.
With `CCN(Cc1cccc(S(=O)(=O)[O-])c1)c1ccc(C(=C2C=CC(=[N+](CC)Cc3cccc(S(=O)(=O)[O-])c3)C=C2)c2ccccc2S(=O)(=O)[O-])cc1.[Na+].[Na+]` [Blue 1], the “Expected Absorption Maxima” value in data set [3] (setting [16]) is listed as 627 nm.
On to `O=C1/C(=C2\Nc3ccc(S(=O)(=O)[O-])cc3C2=O)Nc2ccc(S(=O)(=O)[O-])cc21.[Na+].[Na+]` [Blue 2], for which the “Expected Absorption Maxima” value in data set [3] (setting [16]) is reported as 610 nm.
Regarding `CCN(Cc1cccc(S(=O)(=O)[O-])c1)c1ccc(C(=C2C=CC(=[N+](CC)Cc3cccc(S(=O)(=O)[O-])c3)C=C2)c2ccc(O)cc2S(=O)(=O)[O-])cc1.[Na+].[Na+]` [Green 3], the “Expected Absorption Maxima” value in data set [3] (setting [16]) was 625 nm.
`O=S(=O)([O-])c1ccc2c(N=Nc3ccc(S(=O)(=O)[O-])c4ccccc34)c(O)c(S(=O)(=O)[O-])cc2c1.[Na+].[Na+].[Na+]` [Red 2]: the “dead quenching capacity of split enhancing dye in combination with yellow food dye No. 6 (FIG. 8)” value in data set [1] is on record as “strong dead quenching capacity”. The “split enhancing effect compared to control, in words” value in data set [2] was “did not provide a split enhancing, or noise reducing effect”. The “peak to valley ratio, average 8 bulls” value was determined as 1.06 in data set [2] (setting [4]); 1.15 in data set [2] (setting [5]); 1.54 in data set [2] (setting [6]); 1.73 in data set [2] (setting [7]); 1.00 in data set [2] (setting [8]); 1.05 in data set [2] (setting [9]). The “peak to valley ratio, average 8 bulls” value stood at 1.12 in data set [2] (setting [10]); 1.38 in data set [2] (setting [11]); 1.00 in data set [2] (setting [12]); 1.00 in data set [2] (setting [13]); 1.00 in data set [2] (setting [14]); 1.00 in data set [2] (setting [15]). In data set [3] (setting [16]), the “Expected Absorption Maxima” value is given as 520 nm.
Regarding `O=C(O)c1ccccc1-c1c2cc(I)c(=O)c(I)c-2oc2c(I)c(O)c(I)cc12` [Red 3, 2-(6-Hydroxy-2,4,5,7-tetraiodo-3-oxo-xanthen-9-yl)benzoic acid], the PV came out at 1.45 in data set [2] (R3 25 μM with Y6 50 μM, first Y6 series); 1.63 in data set [2] (R3 50 μM with R40 50 μM); 1.33 in data set [2] (R3 50 μM with Y6 50 μM, second Y6 series); 1.65 in data set [2] (R3 100 μM with R40 50 μM); 1.38 in data set [2] (R3 100 μM with Y6 50 μM, first Y6 series); 1.55 in data set [2] (R3 100 μM with Y6 50 μM, second Y6 series). Besides, the PV in data set [2] (R3 150 μM with Y6 50 μM, first Y6 series) worked out at 1.41; in data set [2] (R3 200 μM with R40 50 μM) it was 1.78; in data set [2] (R3 300 μM with R40 50 μM), 2.15; in data set [2] (R3 300 μM with Y6 50 μM, first Y6 series), 1.66; in data set [2] (R3 300 μM with Y6 50 μM, second Y6 series), 1.68; in data set [2] (R3 600 μM with Y6 50 μM, first Y6 series), 1.31. In addition, the PV in data set [2] (R3 600 μM with Y6 50 μM, second Y6 series) worked out at 1.42. Besides, the “peak to valley ratio, average 8 bulls” value was 1.05 in data set [2] (setting [4]); 1.43 in data set [2] (setting [5]); 1.78 in data set [2] (setting [6]); 1.79 in data set [2] (setting [7]); 1.05 in data set [2] (setting [8]); 1.36 in data set [2] (setting [9]). The “peak to valley ratio, average 8 bulls” value in data set [2] (setting [10]) is 1.58; in data set [2] (setting [11]), 1.60; in data set [2] (setting [12]) it was 1.00; in data set [2] (setting [13]), 1.02; in data set [2] (setting [14]) it was 1.10; in data set [2] (setting [15]), 1.32. Further, in data set [3], the “(local) maximum absorption wavelength, as believed” value is given as “about 530 nm”. Besides, the “Expected Absorption Maxima” value in data set [3] (setting [16]) is listed as 530 nm.
